Data as given in paper PMC4466645 (Oncotarget, 2015).
pIC50: −log10 of the molar value. Values belong to the molecule of their own block, whether it stands above or below them.

Assays:
[1] = set-up: method as in PMID 23693152; details: cited from earlier work
[2] = set-up: method as in PMID 23693152; details: cited from earlier work; remark: listed apart in the source
[3] = tested on: AML cell lines expressing Mer or Flt3 internal tandem duplication (ITD); assay: Apoptosis by flow cytometry, AML cell lines expressing Mer or Flt3-ITD (all lines together)
Procedure: (§2) To assess apoptosis, AML cell lines were cultured at 3 × 10^5 cells, and 1 × 10^6 AML patient blasts were co-cultured with 3.5 × 10^5 HS27 cells per condition in 24 well plates, and treated for 72 hours. […] Flow cytometry data were analyzed using Modfit Cell Cycle Analysis software (Verity Software House). In replating assays, cells were similarly plated and treated, then harvested cells were washed twice, and 1.5 × 10^4 viable cells/ml were cultured in cRPMI for six days. Six days after replating, viable myeloblast count was determined by trypan blue exclusion using a Cedex XS Analyzer (Roche).

[4] = molecular target: Mer (Homo sapiens, UniProt Q12866); assay: Microfluidic capillary electrophoresis (MCE) enzymatic assay, Mer; type: biochemical; details: ATP at Km
[5] = molecular target: Flt3 (Homo sapiens, UniProt P36888); assay: Microfluidic capillary electrophoresis (MCE) enzymatic assay, Flt3; type: biochemical; details: ATP at Km
[6] = tested on: Kasumi-1 cell line; assay: Replating (rebound growth) assay, Kasumi-1; details: Kasumi-1, 100 nM for 72 hours then washed, replated at 1.5 × 10^4 viable cells/ml; vehicle 2.0 × 10^5
Procedure: as §2

[7] = tested on: primary AML patient samples; assay: Colony formation in methylcellulose, primary AML patient samples; type: cell-based, human
Procedure: (§1) Cell lines were plated at a density of 1000 cells/ml in 0.35% agar over 0.5% agar base layer. […] Colonies were grown for 14 (NOMO-1, MV4;11, MOLM-13) or 21 days (Kasumi-1) prior to staining with 1 mg/ml nitrotetrazolium blue (Sigma-Aldrich). Treatment-containing medium was renewed twice weekly. […] Human mononuclear cells were isolated from umbilical cord blood samples using Ficoll-Paque PLUS (GE Healthcare Life Sciences). […] Cell line and patient sample colonies were counted using a GelCount colony counter (Oxford Optronix) and cord blood colonies were manually counted in a blinded, non-biased manner.

[8] = tested on: MV4;11 cell line; assay: Apoptosis by flow cytometry (YO-PRO-1 iodide / propidium iodide), MV4;11; details: MV4;11, 300 nM, 72 hours; vehicle 13 ± 3%
Procedure: as §2

[9] = tested on: Flt3-ITD cell lines; assay: Apoptosis by flow cytometry, Flt3-ITD cell lines; type: cell-based; details: 72 hours, range over Flt3-ITD cell lines
Procedure: To assess apoptosis, AML cell lines were cultured at 3 × 10^5 cells, and 1 × 10^6 AML patient blasts were co-cultured with 3.5 × 10^5 HS27 cells per condition in 24 well plates, and treated for 72 hours. Harvested cells were washed, resuspended in PBS containing 1 μM YO-PRO®-1 iodide (Invitrogen) and 1.5 μM propidium iodide (PI) (Invitrogen), and incubated on ice for 15–20 minutes. […] . Flow cytometry data were analyzed using Modfit Cell Cycle Analysis software (Verity Software House). In replating assays, cells were similarly plated and treated, then harvested cells were washed twice, and 1.5 × 10^4 viable cells/ml were cultured in cRPMI for six days. Six days after replating, viable myeloblast count was determined by trypan blue exclusion using a Cedex XS Analyzer (Roche).

[10] = tested on: MV4;11 cell line; assay: Replating (rebound growth) assay, MV4;11; details: MV4;11, 50 nM for 72 hours then washed, replated at 1.5 × 10^4 viable cells/ml
Procedure: as §2

[11] = molecular target: TRKC (Homo sapiens, UniProt Q16288); assay: Protein kinase profiling panel (Carna Biosciences), TRKC; details: read-out: Percent Inhibition at 46 nM, TRKC
[12] = tested on: Kasumi-1; assay: Soft agar colony formation assay, Kasumi-1; type: cell-based; details: Kasumi-1, 100 nM, 21 days, normalized to vehicle
Procedure: as §1

[13] = molecular target: TRKB (Homo sapiens, UniProt Q16620); assay: Protein kinase profiling panel (Carna Biosciences), TRKB; details: read-out: Percent Inhibition at 46 nM, TRKB
[14] = tested on: normal umbilical cord blood; assay: Colony formation in methylcellulose, normal umbilical cord blood hematopoietic precursors; type: cell-based, human
Procedure: as §1

[15] = tested on: Erk1/2, Akt and Stat5 phosphorylation; assay: Downstream signaling immunoblot in Flt3-ITD cell lines; type: cell-based; details: 50 nM, two hour treatment
Procedure: Whole cell lysates were prepared and proteins were resolved on Tris-Glycine SDS-PAGE gels (Invitrogen) and transferred onto nitrocellulose membranes. Membranes were blocked in tris-buffered saline with 0.1% Tween-20 containing 5% bovine serum albumin (when probing for Flt3) or 5% milk (when probing for all other molecules). For immunoprecipitation assays, cells were plated and treated as above, then treated with pervanadate for 10 minutes prior to cell lysis to stabilize the phosphorylation status. With the use of pervandate, it was not necessary to stimulate cells with exogenous Mer or Flt3 ligands (other than from fetal bovine serum) to detect phosphorylated Mer and Flt3 proteins. Anti-Mer antibody or anti-Flt3 and rec-Protein G-sepharose beads (Invitrogen) were added and lysates were incubated overnight on a rocking platform. Beads were washed and eluted proteins were resolved as above. Immunoprecipitate membranes were probed with an anti-phospho-Mer or anti-phospho-Flt3 antibody. After visualization, membranes were stripped and reprobed for total protein. […]

[16] = tested on: MOLM-13 cell line; assay: Apoptosis by flow cytometry (YO-PRO-1 iodide / propidium iodide), MOLM-13; details: MOLM-13, 300 nM, 72 hours; vehicle 8 ± 1%
Procedure: as §2

[17] = molecular target: T1, TrkA (Homo sapiens, UniProt P04629); assay: Microfluidic capillary electrophoresis (MCE) enzymatic assay, TrkA
Procedure: Microfluidic capillary electrophoresis (MCE) enzyme (40 μL, 4 nM Mer) and allowed to incubate for
assay 10 min followed by addition of 32 μL of substrate mix
polypropylene microplate with a final volume of 50μL in reads total, on an EZReader, using upstream voltage =
50mM Hepes, pH 7.4 containing 10mM MgCl2, 1.0 mM −2250V, downstream voltage = −500V and pressure =
DTT, 0.01% Triton X-100, 0.1% bovine serum albumin −1.0 psi (sip time 0.2 sec, buffer 30 sec). The steady-state
(BSA) (MCE Buffer), with 1.0 μM fluorescent substrate velocity was analyzed by linear regression of the peptide
and ATP at Km for each enzyme (Supplemental Table 1). as percent-conversion/min, and a plot of nM compound
70 mM EDTA. Phosphorylated and unphosphorylated using GraphPad Prism (v5.01, GraphPad Software), Y =
Reader software. velocity, X = inhibitor concentration).
Morrison Tight-Binding Method (35).
2.0 nM Mer, and 1.0 μM peptide substrate.

[18] = tested on: AML cell lines; assay: Cell cycle analysis (propidium iodide, ModFit) in AML cell lines; details: significant at the 300 nM dose, 72 hours
Procedure: as §2

[19] = tested on: Kasumi-1 cell line; assay: Apoptosis by flow cytometry (YO-PRO-1 iodide / propidium iodide), Kasumi-1; details: Kasumi-1, 300 nM, 72 hour; vehicle 30 ± 7%
Procedure: as §2

[20] = Pharmacokinetics in a murine model; details: mouse, in vivo, po
[21] = tested on: primary AML patient samples; assay: Apoptosis by flow cytometry in primary AML patient samples co-cultured with HS27 stromal cells; type: cell-based, human
Source text: Cell lines MV4;11, NOMO-1, KG-1a, NB-4, and HEL were obtained from the German Collection of Microorganisms and Cell Culture (DSMZ); Kasumi-1 and U937 were obtained from the American Type Culture Collection (ATCC); MOLM-13 was a gift from Robert Arceci (Johns Hopkins); HS-27 was a gift from Kathrin Bernt (University of Colorado). AML cell lines were maintained in RPMI medium (HyClone) supplemented with 10% FBS and penicillin/streptomycin (cRPMI). Cell line identities were confirmed using short tandem repeat microsatellite loci analysis. HS-27 stromal cells were maintained in DMEM with 10% FBS and penicillin/streptomycin prior to co-culture. De-identified cord blood samples and primary patient myeloblasts apheresed from peripheral blood were obtained from the University of Colorado after written informed consent in accordance with the Declaration of Helsinki. Experiments conformed to regulatory standards as approved by the Colorado Multiple Institutional Review Board. AML patient samples were maintained as previously described, with HS-27 stromal co-culture for apoptosis and cell cycle experiments.
To assess apoptosis, AML cell lines were cultured at 3 × 10^5 cells, and 1 × 10^6 AML patient blasts were co-cultured with 3.5 × 10^5 HS27 cells per condition in 24 well plates, and treated for 72 hours. Harvested cells were washed, resuspended in PBS containing 1 μM YO-PRO®-1 iodide (Invitrogen) and 1.5 μM propidium iodide (PI) (Invitrogen), and incubated on ice for 15–20 minutes. […] Flow cytometry data were analyzed using Modfit Cell Cycle Analysis software (Verity Software House). In replating assays, cells were similarly plated and treated, then harvested cells were washed twice, and 1.5 × 10^4 viable cells/ml were cultured in cRPMI for six days. Six days after replating, viable myeloblast count was determined by trypan blue exclusion using a Cedex XS Analyzer (Roche).

[22] = tested on: Mer-expressing cell lines; assay: Apoptosis by flow cytometry, Mer-expressing cell lines; details: 72 hours, range over Mer-expressing cell lines
[23] = tested on: Erk1/2, Akt and Stat6 phosphorylation; assay: Downstream signaling immunoblot in Mer expressing cell lines; type: cell-based; details: two hour treatment
Procedure: Whole cell lysates were prepared and proteins were resolved on Tris-Glycine SDS-PAGE gels (Invitrogen) and transferred onto nitrocellulose membranes. Membranes were blocked in tris-buffered saline with 0.1% Tween-20 containing 5% bovine serum albumin (when probing for Flt3) or 5% milk (when probing for all other molecules). For immunoprecipitation assays, cells were plated and treated as above, then treated with pervanadate for 10 minutes prior to cell lysis to stabilize the phosphorylation status. With the use of pervandate, it was not necessary to stimulate cells with exogenous Mer or Flt3 ligands (other than from fetal bovine serum) to detect phosphorylated Mer and Flt3 proteins. Anti-Mer antibody or anti-Flt3 and rec-Protein G-sepharose beads (Invitrogen) were added and lysates were incubated overnight on a rocking platform. Beads were washed and eluted proteins were resolved as above. Immunoprecipitate membranes were probed with an anti-phospho-Mer or anti-phospho-Flt3 antibody. After visualization, membranes were stripped and reprobed for total protein. The following antibodies were used according to manufacturer recommendations: anti-Mer (ab52968, AbCam); anti-phospho-Mer (Phosphosolutions Inc.); anti-Flt3 (sc-480), anti-Actin (sc-1616), anti-pan-Trk (sc-11), donkey-anti-goat IgG-HRP (sc-2020) (Santa Cruz Biotechnology); anti-phospho-Flt3 (#3461), anti-phospho-Stat6 (Tyr641, #9364), anti-Stat6, (#9362), anti-phospho-Stat5 (Tyr694, #9359), anti-Stat5 (#9358), anti-phospho-AKT (Ser473, #9271L), anti-AKT (#9272), anti-phospho-p44/42-MAPK (ERK1/2, Thr202/Tyr204, #9106), anti-p44/42-MAPK (#9102), anti-PARP (#9542), anti-Caspase-3 (#9665), anti-Tyro-3 (#5585) (Cell Signaling Technology); anti-Axl (AF154, R&D Systems); goat-anti-mouse IgG-HRP, goat-anti-rabbit IgG-HRP (BioRad). Proteins were visualized by horseradish peroxidase chemiluminescence detection (Perkin-Elmer).

[24] = tested on: NOMO-1; assay: Soft agar colony formation assay, NOMO-1; type: cell-based; details: NOMO-1, 100 nM, 14 days, normalized to vehicle
Procedure: as §1

[25] = tested on: AML cell lines expressing Mer or Flt3 internal tandem duplication (ITD); assay: Colony formation, AML cell lines expressing Mer or Flt3-ITD (all lines together); type: cell-based; details: compared to treatment with vehicle
Procedure: Cell lines were plated at a density of 1000 cells/ml in 0.35% agar over 0.5% agar base layer. […] Colonies were grown for 14 (NOMO-1, MV4;11, MOLM-13) or 21 days (Kasumi-1) prior to staining with 1 mg/ml nitrotetrazolium blue (Sigma-Aldrich). Treatment-containing medium was renewed twice weekly. […]. Human mononuclear cells were isolated from umbilical cord blood samples using Ficoll-Paque PLUS (GE Healthcare Life Sciences). […]. Cell line and patient sample colonies were counted using a GelCount colony counter (Oxford Optronix) and cord blood colonies were manually counted in a blinded, non-biased manner.

[26] = molecular target: T1, TrkA; assay: Protein kinase profiling panel (Carna Biosciences), TRKA; details: read-out: Percent Inhibition at 46 nM, TRKA
[27] = tested on: MOLM-13; assay: Soft agar colony formation assay, MOLM-13; type: cell-based; details: MOLM-13, 50 nM, 14 days, normalized to vehicle
Procedure: as §1

[28] = tested on: MV4;11; assay: Soft agar colony formation assay, MV4;11; type: cell-based; details: MV4;11, 50 nM, 14 days, normalized to vehicle
Procedure: as §1

T1 sequence (P04629 33-796): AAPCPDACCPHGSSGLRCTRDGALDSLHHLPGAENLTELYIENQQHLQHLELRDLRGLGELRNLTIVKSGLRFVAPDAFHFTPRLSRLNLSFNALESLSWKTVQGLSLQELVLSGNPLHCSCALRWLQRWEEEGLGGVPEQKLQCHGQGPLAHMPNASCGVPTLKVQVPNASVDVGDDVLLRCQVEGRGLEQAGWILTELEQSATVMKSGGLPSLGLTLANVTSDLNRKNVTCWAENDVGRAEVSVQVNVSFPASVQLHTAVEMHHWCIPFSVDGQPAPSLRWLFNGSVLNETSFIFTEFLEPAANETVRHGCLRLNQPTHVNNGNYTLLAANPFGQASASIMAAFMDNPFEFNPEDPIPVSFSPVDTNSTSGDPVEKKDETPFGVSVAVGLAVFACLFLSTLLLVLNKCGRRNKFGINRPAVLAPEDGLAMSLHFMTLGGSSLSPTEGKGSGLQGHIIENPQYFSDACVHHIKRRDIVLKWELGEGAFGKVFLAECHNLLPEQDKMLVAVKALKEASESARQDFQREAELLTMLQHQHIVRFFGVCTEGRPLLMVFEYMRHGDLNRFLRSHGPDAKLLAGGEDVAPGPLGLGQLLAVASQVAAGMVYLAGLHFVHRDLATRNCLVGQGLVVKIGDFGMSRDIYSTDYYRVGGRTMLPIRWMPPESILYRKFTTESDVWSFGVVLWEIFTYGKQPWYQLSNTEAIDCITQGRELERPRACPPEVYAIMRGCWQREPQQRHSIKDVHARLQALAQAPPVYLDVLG
Sequence of TRKB (Q16620 32-822): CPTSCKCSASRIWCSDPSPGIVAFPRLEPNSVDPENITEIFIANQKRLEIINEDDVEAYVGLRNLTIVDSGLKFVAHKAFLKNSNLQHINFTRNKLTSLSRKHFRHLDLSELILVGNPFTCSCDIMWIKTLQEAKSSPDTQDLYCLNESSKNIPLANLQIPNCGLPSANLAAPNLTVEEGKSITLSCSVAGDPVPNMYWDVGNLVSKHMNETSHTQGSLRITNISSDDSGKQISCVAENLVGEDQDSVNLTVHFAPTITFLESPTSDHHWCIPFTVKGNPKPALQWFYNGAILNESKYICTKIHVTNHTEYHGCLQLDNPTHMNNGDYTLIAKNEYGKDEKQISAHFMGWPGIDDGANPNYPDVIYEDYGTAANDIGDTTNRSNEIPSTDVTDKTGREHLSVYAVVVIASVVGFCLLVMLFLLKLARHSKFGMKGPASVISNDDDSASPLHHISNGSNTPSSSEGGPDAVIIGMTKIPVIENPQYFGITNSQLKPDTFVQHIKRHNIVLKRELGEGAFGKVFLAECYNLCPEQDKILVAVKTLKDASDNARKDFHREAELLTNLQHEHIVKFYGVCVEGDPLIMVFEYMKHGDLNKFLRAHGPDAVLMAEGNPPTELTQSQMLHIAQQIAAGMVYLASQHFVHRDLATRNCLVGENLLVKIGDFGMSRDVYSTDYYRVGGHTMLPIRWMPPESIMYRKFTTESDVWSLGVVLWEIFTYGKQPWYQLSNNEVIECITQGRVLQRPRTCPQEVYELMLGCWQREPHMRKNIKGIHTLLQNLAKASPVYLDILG
Sequence of Flt3 (P36888 27-993): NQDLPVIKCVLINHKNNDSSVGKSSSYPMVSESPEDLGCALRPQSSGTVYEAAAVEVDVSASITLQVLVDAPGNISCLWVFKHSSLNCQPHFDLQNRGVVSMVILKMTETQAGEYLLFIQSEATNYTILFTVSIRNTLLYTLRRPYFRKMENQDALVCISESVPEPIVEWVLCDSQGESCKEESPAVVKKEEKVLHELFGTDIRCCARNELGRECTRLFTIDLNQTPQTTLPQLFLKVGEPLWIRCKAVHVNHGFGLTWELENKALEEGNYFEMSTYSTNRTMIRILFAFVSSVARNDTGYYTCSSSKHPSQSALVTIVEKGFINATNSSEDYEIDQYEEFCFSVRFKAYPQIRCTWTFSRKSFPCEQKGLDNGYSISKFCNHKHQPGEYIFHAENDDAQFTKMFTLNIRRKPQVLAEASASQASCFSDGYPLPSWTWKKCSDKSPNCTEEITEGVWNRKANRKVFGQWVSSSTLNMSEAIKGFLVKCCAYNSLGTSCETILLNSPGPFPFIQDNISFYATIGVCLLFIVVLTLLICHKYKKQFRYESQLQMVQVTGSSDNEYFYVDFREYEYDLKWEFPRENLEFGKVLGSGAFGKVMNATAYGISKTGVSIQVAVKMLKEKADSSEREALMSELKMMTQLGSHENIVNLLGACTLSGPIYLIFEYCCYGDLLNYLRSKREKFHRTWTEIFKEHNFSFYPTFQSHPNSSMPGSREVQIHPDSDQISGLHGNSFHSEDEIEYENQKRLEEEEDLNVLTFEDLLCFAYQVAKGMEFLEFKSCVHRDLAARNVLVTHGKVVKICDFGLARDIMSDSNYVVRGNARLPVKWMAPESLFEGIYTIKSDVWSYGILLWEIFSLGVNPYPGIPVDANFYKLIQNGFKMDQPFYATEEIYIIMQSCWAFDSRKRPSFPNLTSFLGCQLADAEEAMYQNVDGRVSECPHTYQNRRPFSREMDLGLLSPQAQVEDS
Sequence of TRKC (Q16288 32-839): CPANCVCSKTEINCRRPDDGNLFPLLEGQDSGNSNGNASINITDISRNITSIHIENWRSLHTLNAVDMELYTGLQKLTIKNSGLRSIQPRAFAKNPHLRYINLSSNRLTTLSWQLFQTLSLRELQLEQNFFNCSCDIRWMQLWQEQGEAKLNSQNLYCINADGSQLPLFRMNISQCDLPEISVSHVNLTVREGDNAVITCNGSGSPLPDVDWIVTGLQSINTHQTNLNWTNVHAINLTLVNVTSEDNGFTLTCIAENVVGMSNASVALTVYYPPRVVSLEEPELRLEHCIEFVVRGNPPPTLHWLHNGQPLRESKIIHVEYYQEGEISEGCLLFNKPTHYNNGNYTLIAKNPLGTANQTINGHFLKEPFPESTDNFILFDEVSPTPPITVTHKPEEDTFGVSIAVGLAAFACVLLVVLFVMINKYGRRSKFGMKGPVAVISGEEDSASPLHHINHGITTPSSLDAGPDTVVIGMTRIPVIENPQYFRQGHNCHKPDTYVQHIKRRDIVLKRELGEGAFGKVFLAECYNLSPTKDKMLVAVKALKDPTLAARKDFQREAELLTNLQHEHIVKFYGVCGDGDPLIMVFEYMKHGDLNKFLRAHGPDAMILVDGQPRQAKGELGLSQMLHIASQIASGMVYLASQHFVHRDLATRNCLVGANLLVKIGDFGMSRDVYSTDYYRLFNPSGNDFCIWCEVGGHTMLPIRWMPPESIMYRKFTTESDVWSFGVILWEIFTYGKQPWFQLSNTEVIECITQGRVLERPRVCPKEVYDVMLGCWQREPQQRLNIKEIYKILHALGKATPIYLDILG
Sequence of Mer (Q12866 21-999): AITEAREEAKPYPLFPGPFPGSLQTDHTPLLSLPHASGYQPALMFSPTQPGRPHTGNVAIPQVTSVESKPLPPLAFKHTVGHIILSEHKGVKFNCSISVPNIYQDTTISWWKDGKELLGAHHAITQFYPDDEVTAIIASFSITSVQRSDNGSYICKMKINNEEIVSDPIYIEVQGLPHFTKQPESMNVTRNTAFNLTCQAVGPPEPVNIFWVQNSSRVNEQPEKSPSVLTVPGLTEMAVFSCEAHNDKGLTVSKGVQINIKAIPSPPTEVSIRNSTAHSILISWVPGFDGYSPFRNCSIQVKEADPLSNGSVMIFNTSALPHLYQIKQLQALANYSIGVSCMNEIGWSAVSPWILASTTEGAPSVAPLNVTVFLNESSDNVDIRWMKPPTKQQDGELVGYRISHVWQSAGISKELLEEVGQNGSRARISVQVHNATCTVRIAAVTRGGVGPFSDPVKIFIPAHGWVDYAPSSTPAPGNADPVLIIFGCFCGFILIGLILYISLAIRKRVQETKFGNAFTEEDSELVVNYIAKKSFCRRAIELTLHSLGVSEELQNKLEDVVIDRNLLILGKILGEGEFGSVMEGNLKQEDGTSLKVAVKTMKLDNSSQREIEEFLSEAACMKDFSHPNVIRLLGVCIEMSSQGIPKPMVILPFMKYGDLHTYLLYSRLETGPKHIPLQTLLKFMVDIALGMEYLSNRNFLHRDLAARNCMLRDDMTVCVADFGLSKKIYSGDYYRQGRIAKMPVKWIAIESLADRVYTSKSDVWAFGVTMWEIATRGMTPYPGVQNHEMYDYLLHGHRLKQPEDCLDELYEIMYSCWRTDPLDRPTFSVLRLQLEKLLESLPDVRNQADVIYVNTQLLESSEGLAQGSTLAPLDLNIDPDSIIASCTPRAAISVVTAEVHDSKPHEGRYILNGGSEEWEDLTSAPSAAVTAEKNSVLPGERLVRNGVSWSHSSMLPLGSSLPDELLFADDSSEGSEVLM

SMILES: CCCCNc1ncc2c(-c3ccc(S(=O)(=O)N4CCOCC4)cc3)nn(C3CCC(O)CC3)c2n1 (stereo not shown) [UNC1062]
In vivo pharmacokinetic properties (in words) [1]: poor in vivo pharmacokinetic properties | Solubility (in words) [2]: low solubility

pIC50 [4]: 6.25 | pIC50 [5]: 6.66
SMILES: CCCCN(C)c1ncc2c(-c3ccc(F)cc3)nn(C[C@H]3CC[C@H](N)CC3)c2n1 [UNC1653]
Induction of apoptosis (in words) ([3]; 72 hours, Mer-expressing or Flt3-ITD cell lines): did not induce apoptosis

SMILES: CCCCNc1ncc2c(-c3ccc(S(=O)(=O)N4CCOCC4)cc3)cn([C@H]3CC[C@H](O)CC3)c2n1 [UNC1666]
Viable cell number at Day 6 after replating [6]: 0.3 × 10^5 cells/ml | Induction of apoptosis, % of cells ([3]; maximum over cell lines, compared to vehicle): up to 98% | Concentrations at which patient-derived myeloblasts are sensitive in methylcellulose cultures ([7]; as low as): 5 to 50 nM | Colony formation (in words) ([7]; concentrations as low as 50 nM, in all but one sample, 10 days, methylcellulose): near complete abrogation of colony formation | Apoptosis (cells apoptotic or dead) [8]: 90 ± 1% | Cells apoptotic or dead ([9]; 50 nM): 54–67% | Cells apoptotic or dead ([9]; 300 nM): 90–98% | Viable cell number at Day 6 after replating ([10]; vehicle 10 × 10^5): 2.0 × 10^5 viable cells/ml | Increase in viable cell number over six days after replating ([10]; vehicle 67-fold): 13 fold | inhibition at 0.046 µM [11]: 98% | Reduction in colony formation [12]: 90 ± 6% | inhibition at 0.046 µM [13]: 95% | Colony formation of normal cord blood hematopoietic precursors (in words) ([14]; 1 μM, methylcellulose, 14 days): trend towards decreased colony formation | Decrease in colony formation of normal cord blood hematopoietic precursors (in words) ([14]; 10 μM, methylcellulose, 14 days): statistically significant | Colony forming potential of hematopoietic progenitors in normal cord blood cultures (in words) ([14]; doses as high as 1 μM): did not affect the colony forming potential | Colony number of normal cord blood hematopoietic precursors (in words) ([14]; doses up to 500 nM, n = 3, methylcellulose, 14 days): no significant reduction in colony number | Erk1/2, Akt and Stat5 phosphorylation [15]: near complete ablation of phosphorylation | Apoptosis (cells apoptotic or dead) [16]: 98 ± 2% | pIC50 [17]: 9.24 | Cell cycle effect (in words) [18]: accumulation of cells in G2M phase | Cells apoptotic or dead [19]: 76 ± 8% | bioavailability [20]: 8% | Anti-proliferative effects in patient samples (in words) ([21]; 50 nM, co-culture with stromal cells): near complete induction of apoptosis and growth inhibition | Induction of apoptosis (in words) ([21]; 72 hours, HS27 stromal co-culture): induce apoptosis in all patient samples | Concentrations at which functional effects (decreased ability to evade apoptosis, decreased colony formation) occurred ([21]; AML patient samples that co-expressed Mer and Flt3): 5 to 100 nM | Induction of apoptosis, % of cells ([22]; 100 nM): 50–67% | Induction of apoptosis, % of cells ([22]; 300 nM): 68–76% | Erk1/2, Akt and Stat6 phosphorylation ([23]; 50 nM): diminished phosphorylation | Erk1/2, Akt and Stat6 phosphorylation ([23]; 100 nM): moderate decrease | Erk1/2, Akt and Stat6 phosphorylation ([23]; 300 nM): more complete inhibition | Reduction in colony formation [24]: 71 ± 4% | Reduction of colony formation [25]: greater than 90% | inhibition at 0.046 µM [26]: 101% | Reduction in colonies [27]: 93 ± 6% | Reduction in colonies [28]: 61 ± 22%
